Measurements taken from ChEMBL document CHEMBL1134110, “Anticonvulsant effects of new morphinan derivatives” (2001).

Assays:
Format in all cases: functional
[1] = test system: Rattus norvegicus; test: The compound was tested for anticonvulsive activity expressed as seizure score after 4 hr of injection of kainic acid (10 mg/kg) and the drug at the dose of 40 mg/Kg in 15 rats
[2] = test system: Rattus norvegicus; test: The compound was examined for circling behavior (marginal activity) using automated videotracking system 30 min after intraperitoneal injection at the dose of 40 mg/Kg in 12 rats
[3] = test system: Rattus norvegicus; test: Effect was expressed as mortality after injection of kainic acid (10 mg/kg) and the drug at the dose of 20 mg/Kg after 48 hr out of 19 animals
[4] = test system: Rattus norvegicus; test: The compound was examined for circling behavior (marginal activity) using automated videotracking system 30 min after intraperitoneal injection at the dose of 20 mg/Kg in 12 rats
[5] = test system: Rattus norvegicus; test: Effect was expressed as mortality after injection of kainic acid (10 mg/kg) and the drug at the dose of 40 mg/Kg after 48 hr
[6] = test system: Rattus norvegicus; test: The compound was tested for anticonvulsive activity expressed as seizure score after 4 hr of injection of kainic acid (10 mg/kg) and the drug at the dose of 20 mg/Kg in 15 rats
[7] = test system: Rattus norvegicus; test: The compound was tested for anticonvulsive activity expressed as seizure score after 4 hr of injection of kainic acid (10 mg/kg) in 15 rats
[8] = test system: Rattus norvegicus; test: The compound was examined for circling behavior (marginal activity) using automated videotracking system 30 min after intraperitoneal injection at the dose of 5 mg/Kg in 12 rats

Structure (SMILES)	Seizure score [1]	Absolute turn angular/3 min [2]	Mortality [3]	Absolute turn angular/3 min [4]	Mortality [5]	Seizure score [6]	Seizure score [7]	Absolute turn angular/3 min [8]
COc1ccc2c(c1)C13CCCCC1C(C2)NCC3 (configuration not stated)	2	258	4	186	4	2.4		
Oc1ccc2c(c1)C13CCCCC1C(C2)NCC3 (configuration not stated)	2.1	262	5	194	4	2.5		
C=CCOc1ccc2c(c1)C13CCCCC1C(C2)NCC3 (configuration not stated)	1	184	11	152	1	1.5		
C=CCN1CCC23CCCCC2C1Cc1ccc(OC)cc13 (configuration not stated)	2.2	282	6	224	6	2.9		
C=CCOc1ccc2c(c1)C13CCCCC1C(C2)N(CC1CC1)CC3 (configuration not stated)	2	250	4	172	4	2.8		
C=CCOc1ccc2c(c1)C13CCCCC1C(C2)N(C)CC3 (configuration not stated)	1.5	219	3	168	3	1.9		
CN1CCC23CCCCC2C1Cc1ccc(OCC2CC2)cc13 (configuration not stated)	1.3	202	3	160	2	1.8		
C=CCN1CCC23CCCCC2C1Cc1ccc(OCC2CC2)cc13 (configuration not stated)	2.2	242	5	175	4	2.7		
C=C(C)[C@H]1CN[C@H](C(=O)O)[C@H]1CC(=O)O [KAINIC ACID]							4.2	
CN1CC[C@]23CCCC[C@H]2[C@H]1Cc1ccc(O)cc13 [LEVORPHANOL]	1.8	384	5	310	4	2.8		
c1ccc(C2(N3CCCCC3)CCCCC2)cc1 [PHENCYCLIDINE]								420
COc1ccc2c(c1)C13CCCCC1C(C2)N(C)CC3 (stereo not drawn) [RACEMETHORPHAN]	1.4	265	4	192	2	2.2		
